Laboratory results: US20190255086A1, “Compositions and Methods for Treating an Infection” (CMPD Licensing, LLC, priority 2015, published 2019)
Like-named read-outs stand apart in the source and are kept apart here.

Tests used:
Aspergillus fumigatus = test: Expected efficacy of anti-fungal agents against various fungi (Table 4)
Aspergillus niger = test: as above
Aspergillus terreus = test: as above
Candida species = test: as above
Fusarium species = test: as above
Salmonella typhi = test: Expected efficacy of anti-bacterial agents against various bacteria (Tables 5 and 6); details: Gram: neg
Morganella morganii = test: as above; details: Gram: neg
Enterobacter cloacae = test: as above; details: Gram: neg
Providencia stuartii = test: as above; details: Gram: neg
Citrobacter diversus = test: as above; details: Gram: neg
[1] = tested on: Klebsiella (Calymmatobacterium) granulomatis; test: as above; details: Gram: neg
Haemophilus influenzae = test: as above; details: Gram: neg
Streptococcus pyogenes = test: as above; details: Gram: pos
Escherichia coli = test: as above; details: Gram: neg
Bartonella bacilliformis = test: as above; details: Gram: neg
Proteus mirabilis = test: as above; details: Gram: neg
Acinetobacter baumannii = test: as above; details: Gram: neg
[2] = tested on: Acinetobacter calcoaceticus; test: Expected efficacy of anti-bacterial agents against various bacteria (Tables 5 and 6); details: Gram: neg
Corynebacterium jeikeium = test: as above; details: Gram: pos
Serratia marcescens = test: as above; details: Gram: neg
Proteus vulgaris = test: as above; details: Gram: neg
Bordetella pertussis = test: Expected efficacy of anti-bacterial agents against various bacteria (Tables 5 and 6); details: Gram: neg
[3] = tested on: Staphylococcus aureus (MSSA); test: as above; details: Gram: pos
Moraxella catarrhalis = test: as above; details: Gram: neg
Klebsiella pneumoniae = test: as above; details: Gram: neg
Citrobacter freundii = test: as above; details: Gram: neg
[4] = tested on: Corynebacterium urealyticum; test: as above; details: Gram: pos
Haemophilus ducreyi = test: Expected efficacy of anti-bacterial agents against various bacteria (Tables 5 and 6); details: Gram: neg
Enterobacter sakazakii = test: as above; details: Gram: neg
[5] = tested on: Methicillin resistant staph aureus (MRSA); test: as above; details: Gram: pos
Providencia rettgeri = test: as above; details: Gram: neg
Shigella flexneri = test: as above; details: Gram: neg
Acinetobacter lwoffii = test: as above; details: Gram: neg
Campylobacter jejuni = test: Expected efficacy of anti-bacterial agents against various bacteria (Tables 5 and 6); details: Gram: neg
Neisseria meningitidis = test: as above; details: Gram: neg
Shigella dysenteriae = test: as above; details: Gram: neg
Klebsiella oxytoca = test: as above; details: Gram: neg
Shigella sonnei = test: Expected efficacy of anti-bacterial agents against various bacteria (Tables 5 and 6); details: Gram: neg
Vibrio cholerae = test: as above; details: Gram: neg
Pseudomonas fluorescens = test: as above; details: Gram: neg
Enterobacter aerogenes = test: as above; details: Gram: neg
Shigella boydii = test: as above; details: Gram: neg
Pseudomonas aeruginosa = test: as above; details: Gram: neg
Neisseria gonorrhoeae = test: as above; details: Gram: neg
[6] = tested on: gram-positive staphylococci and streptococci; details: general background statement; cited from earlier work
Blastomyces dermatitidis = test: Expected efficacy of anti-fungal agents against various fungi (Table 4)
Cryptococcus neoformans = test: as above
Coccidioides immitis = details: expected efficacy
Clostridium difficile = test: Expected efficacy of anti-bacterial agents against various bacteria (Tables 5 and 6); details: Gram: anaer
Streptococcus pneumoniae = test: Expected efficacy of anti-bacterial agents against various bacteria (Tables 5 and 6); details: Gram: pos
Mycoplasma pneumoniae = test: as above; details: Gram: n/a
[7] = tested on: Haemophilus parainfluenzae; test: as above; details: Gram: neg
Enterococcus faecium = test: as above; details: Gram: pos
Chlamydia pneumoniae = test: as above; details: Gram: n/a
Peptostreptococcus = test: as above; details: Gram: pos
Diphtheroids = test: as above; details: Gram: pos
Enterococcus faecalis = test: as above; details: Gram: pos
Streptococcus agalactiae = test: as above; details: Gram: pos
[8] = tested on: Viridans group streptococci; test: as above; details: Gram: pos
[9] = tested on: Staphylococcus epidermidis; test: as above; details: Gram: pos
Chlamydia trachomatis = test: as above; details: Gram: n/a
Bacteroides fragilis = test: as above; details: Gram: anaer

C[C@@H](c1ncncc1F)[C@](O)(Cn1cncn1)c1ccc(F)cc1F [Voriconazole]
Efficacy of various antifungal agents (Aspergillus fumigatus): yes | Efficacy of various antifungal agents (Aspergillus niger): yes | Efficacy of various antifungal agents (Aspergillus terreus): yes | Efficacy of various antifungal agents (Candida species): yes | Efficacy of various antifungal agents (Fusarium species): yes

C/C(=C\C(=O)OCCCCCCCCC(=O)O)C[C@@H]1OC[C@H](C[C@@H]2O[C@H]2[C@@H](C)[C@H](C)O)[C@@H](O)[C@H]1O [Bactroban, Mupirocin]
Efficacy of various antibiotic agents (Clostridium perfringens; expected efficacy, Clostridium perfringens, Gram: anaer): no | Efficacy of various antibiotic agents (Salmonella typhi): no | Efficacy of various antibiotic agents (Morganella morganii): no | Efficacy of various antibiotic agents (Enterobacter cloacae): no | Efficacy of various antibiotic agents (Providencia stuartii): no | Efficacy of various antibiotic agents (Citrobacter diversus): no | Efficacy of various antibiotic agents [1]: no | Efficacy of various antibiotic agents (Haemophilus influenzae): no | Efficacy of various antibiotic agents (Streptococcus pyogenes): yes | Efficacy of various antibiotic agents (Escherichia coli): no | Efficacy of various antibiotic agents (Bartonella bacilliformis): no | Efficacy of various antibiotic agents (Proteus mirabilis): no | Efficacy of various antibiotic agents (Acinetobacter baumannii): no | Efficacy of various antibiotic agents (Francisella tularensis; expected efficacy, Francisella tularensis, Gram: neg): no | Efficacy of various antibiotic agents [2]: no | Efficacy of various antibiotic agents (Corynebacterium jeikeium): no | Efficacy of various antibiotic agents (Serratia marcescens): no | Efficacy of various antibiotic agents (Proteus vulgaris): no | Efficacy of various antibiotic agents (Yersinia pestis; expected efficacy, Yersinia pestis, Gram: neg): no | Efficacy of various antibiotic agents (Bordetella pertussis): no | Efficacy of various antibiotic agents [3]: yes | Efficacy of various antibiotic agents (Moraxella catarrhalis): no | Efficacy of various antibiotic agents (Klebsiella pneumoniae): no | Efficacy of various antibiotic agents (Citrobacter freundii): no | Efficacy of various antibiotic agents [4]: no | Efficacy of various antibiotic agents (Brucella species; expected efficacy, Brucella species, Gram: neg): no | Efficacy of various antibiotic agents (Haemophilus ducreyi): no | Efficacy of various antibiotic agents (Enterobacter sakazakii): no | Efficacy of various antibiotic agents [5]: yes | Efficacy of various antibiotic agents (Providencia rettgeri): no | Efficacy of various antibiotic agents (Shigella flexneri): no | Efficacy of various antibiotic agents (Acinetobacter lwoffii): no | Efficacy of various antibiotic agents (Legionella pneumophila; expected efficacy, Legionella pneumophila, Gram: neg): no | Efficacy of various antibiotic agents (Campylobacter jejuni): no | Efficacy of various antibiotic agents (Neisseria meningitidis): no | Efficacy of various antibiotic agents (Shigella dysenteriae): no | Efficacy of various antibiotic agents (Klebsiella oxytoca): no | Efficacy of various antibiotic agents (Rickettsiae; expected efficacy, Rickettsiae, Gram: neg): no | Efficacy of various antibiotic agents (Shigella sonnei): no | Efficacy of various antibiotic agents (Vibrio cholerae): no | Efficacy of various antibiotic agents (Pseudomonas fluorescens): no | Efficacy of various antibiotic agents (Enterobacter aerogenes): no | Efficacy of various antibiotic agents (Shigella boydii): no | Efficacy of various antibiotic agents (Pseudomonas aeruginosa): no | Efficacy of various antibiotic agents (Neisseria gonorrhoeae): no | activity against gram-positive staphylococci and streptococci [6]: excellent activity

OC(Cn1cncn1)(Cn1cncn1)c1ccc(F)cc1F [Fluconazole]
Efficacy of various antifungal agents (Aspergillus fumigatus): yes | Efficacy of various antifungal agents (Blastomyces dermatitidis): yes | Efficacy of various antifungal agents (Cryptococcus neoformans): yes | Efficacy of various antifungal agents (Candida species): yes | Efficacy of various antifungal agents (Coccidioides immitis): yes

CN[C@H](CC(C)C)C(=O)N[C@H]1C(=O)N[C@@H](CC(N)=O)C(=O)N[C@H]2C(=O)N[C@H]3C(=O)N[C@H](C(=O)N[C@H](C(=O)O)c4cc(O)cc(O)c4-c4cc3ccc4O)[C@H](O)c3ccc(c(Cl)c3)Oc3cc2cc(c3O[C@@H]2O[C@H](CO)[C@@H](O)[C@H](O)[C@H]2O[C@H]2C[C@](C)(N)[C@H](O)[C@H](C)O2)Oc2ccc(cc2Cl)[C@H]1O [Vancomycin]
Efficacy of various antibiotic agents (Clostridium difficile): yes | Efficacy of various antibiotic agents (Clostridium perfringens): no | Efficacy of various antibiotic agents (Chlamydia psittaci): no | Efficacy of various antibiotic agents (Salmonella typhi): no | Efficacy of various antibiotic agents (Morganella morganii): no | Efficacy of various antibiotic agents (Enterobacter cloacae): no | Efficacy of various antibiotic agents (Streptococcus pneumoniae): yes | Efficacy of various antibiotic agents (Providencia stuartii): no | Efficacy of various antibiotic agents (Citrobacter diversus): no | Efficacy of various antibiotic agents [1]: no | Efficacy of various antibiotic agents (Mycoplasma pneumoniae): no | Efficacy of various antibiotic agents (Haemophilus influenzae): no | Efficacy of various antibiotic agents (Streptococcus pyogenes): yes | Efficacy of various antibiotic agents [7]: no | Efficacy of various antibiotic agents (Escherichia coli): no | Efficacy of various antibiotic agents (Enterococcus faecium): yes, not VRE | Efficacy of various antibiotic agents (Bartonella bacilliformis): no | Efficacy of various antibiotic agents (Proteus mirabilis): no | Efficacy of various antibiotic agents (Acinetobacter baumannii): no | Efficacy of various antibiotic agents (Chlamydia pneumoniae): no | Efficacy of various antibiotic agents (Peptostreptococcus): yes | Efficacy of various antibiotic agents (Francisella tularensis): no | Efficacy of various antibiotic agents [2]: no | Efficacy of various antibiotic agents (Diphtheroids): yes | Efficacy of various antibiotic agents (Enterococcus faecalis): yes | Efficacy of various antibiotic agents (Corynebacterium jeikeium): yes | Efficacy of various antibiotic agents (Streptococcus agalactiae): yes | Efficacy of various antibiotic agents (Serratia marcescens): no | Efficacy of various antibiotic agents (Proteus vulgaris): no | Efficacy of various antibiotic agents [8]: yes | Efficacy of various antibiotic agents (Yersinia pestis): no | Efficacy of various antibiotic agents (Bordetella pertussis): no | Efficacy of various antibiotic agents [3]: yes | Efficacy of various antibiotic agents (Moraxella catarrhalis): no | Efficacy of various antibiotic agents (Klebsiella pneumoniae): no | Efficacy of various antibiotic agents (Citrobacter freundii): no | Efficacy of various antibiotic agents [4]: yes | Efficacy of various antibiotic agents (Brucella species): no | Efficacy of various antibiotic agents [9]: yes | Efficacy of various antibiotic agents (Haemophilus ducreyi): no | Efficacy of various antibiotic agents (Enterobacter sakazakii): no | Efficacy of various antibiotic agents [5]: yes | Efficacy of various antibiotic agents (Providencia rettgeri): no | Efficacy of various antibiotic agents (Chlamydia trachomatis): no | Efficacy of various antibiotic agents (Shigella flexneri): no | Efficacy of various antibiotic agents (Acinetobacter lwoffii): no | Efficacy of various antibiotic agents (Legionella pneumophila): no | Efficacy of various antibiotic agents (Campylobacter jejuni): no | Efficacy of various antibiotic agents (Neisseria meningitidis): no | Efficacy of various antibiotic agents (Shigella dysenteriae): no | Efficacy of various antibiotic agents (Klebsiella oxytoca): no | Efficacy of various antibiotic agents (Rickettsiae): no | Efficacy of various antibiotic agents (Shigella sonnei): no | Efficacy of various antibiotic agents (Vibrio cholerae): no | Efficacy of various antibiotic agents (Pseudomonas fluorescens): no | Efficacy of various antibiotic agents (Enterobacter aerogenes): no | Efficacy of various antibiotic agents (Bacteroides fragilis): no | Efficacy of various antibiotic agents (Shigella boydii): no | Efficacy of various antibiotic agents (Pseudomonas aeruginosa): no | Efficacy of various antibiotic agents (Neisseria gonorrhoeae): no
